Some test systems named below: MDA-MB-231 breast; IGROV1 ovarian; CCRF-CEM leukemia; OVCAR-4 ovarian; HT29 colon; MDA-MB-435; SNB-19 CNS; OVCAR-3 ovarian; HCT-116 colon; SF-268 CNS.
Common to all, as to test: NCI-60 cell line screen, 48 h

“And” between values parts separate entries of the source, which are not always exact repeats. Equal values may be shown once.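 Tested at 5 concentrations; 48 h exposure; 96-well plates; endpoints linearly interpolated, else capped at highest concentration. GI50 = concentration required for 50% inhibition of growth. TGI denotes the concentration required for complete inhibition of growth.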

Regarding `COc1ccc(N=C2CSc3nnc(-c4cc(F)c(Cl)cc4Cl)n3N2)cc1`, the GI50 in the experiment with MDA-MB-231 breast was 1.41 µM; with IGROV1 ovarian it was 0.187 µM; in the experiment on CCRF-CEM leukemia, 0.674 µM; in the experiment on OVCAR-4 ovarian, 1.82 µM; in the experiment with HT29 colon, 0.395 µM; in the experiment with MDA-MB-435, 0.208 µM. Further, the GI50 in the experiment with SNB-19 CNS is 0.776 µM; in the experiment on OVCAR-3 ovarian it was 0.466 µM; in the experiment with HCT-116 colon it was 0.43 µM; with SF-268 CNS, 1.69 µM. For the same compound, the TGI with MDA-MB-231 breast was 12.8 µM; in the experiment on IGROV1 ovarian it was 0.595 µM; in the experiment on CCRF-CEM leukemia it was above 100 µM; in the experiment with OVCAR-4 ovarian, 7.04 µM; in the experiment on HT29 colon it was 2.11 µM; in the experiment on MDA-MB-435 it was 0.785 µM. Besides, the TGI came to 18.9 µM in the experiment with SNB-19 CNS, 2.02 µM in the experiment with OVCAR-3 ovarian, 1.96 µM with HCT-116 colon and 21.7 µM in the experiment with SF-268 CNS.

Consider `Nc1nc(SCc2ccccn2)c2ncn(C3CCCC3)c2n1`, for which the TGI with MDA-MB-231 breast, in the experiment with IGROV1 ovarian, with CCRF-CEM leukemia, in the experiment on OVCAR-4 ovarian, in the experiment with HT29 colon and with MDA-MB-435 was above 100 µM each time. Moreover, the TGI in the experiment with SNB-19 CNS, in the experiment with OVCAR-3 ovarian, with HCT-116 colon and with SF-268 CNS was above 100 µM each time.

Regarding `Cc1cc(-c2ncc(CC(=O)Nc3ccc(-c4cnccn4)cn3)cc2C)ccn1`, the GI50 is 55.7 µM with MDA-MB-231 breast; 30.5 µM in the experiment on IGROV1 ovarian; 35.8 µM with CCRF-CEM leukemia; 6.11 µM with OVCAR-4 ovarian; 57.8 µM in the experiment on HT29 colon; 21.8 µM in the experiment on MDA-MB-435. In addition, the GI50 is 34.6 µM in the experiment with SNB-19 CNS, 41.2 µM in the experiment on OVCAR-3 ovarian, 49 µM in the experiment with HCT-116 colon and 96 µM in the experiment on SF-268 CNS. Also, the TGI in the experiment on MDA-MB-231 breast, in the experiment with IGROV1 ovarian, with CCRF-CEM leukemia, in the experiment on OVCAR-4 ovarian, with HT29 colon and in the experiment on MDA-MB-435 was above 100 µM in each case. In addition, the TGI with SNB-19 CNS, in the experiment with OVCAR-3 ovarian, in the experiment on HCT-116 colon and with SF-268 CNS was above 100 µM in each case.

For the compound `C=C1C(=O)O[C@H]2[C@H]1CC/C(Cn1cc(CNC(=O)Cc3cn(C(=O)c4ccc(Cl)cc4)c4ccc(OC)cc34)nn1)=C\CC[C@@]1(C)O[C@@H]21`, the GI50 with MDA-MB-231 breast was 1.58 µM; with IGROV1 ovarian, 1.71 µM; in the experiment with CCRF-CEM leukemia, 0.384 µM; with OVCAR-4 ovarian it was 1.44 µM; in the experiment with HT29 colon, 1.67 µM; with MDA-MB-435, 1.71 µM. Further, the GI50 with SNB-19 CNS is 2.14 µM; in the experiment with OVCAR-3 ovarian, 1.61 µM; with HCT-116 colon, 1.19 µM; in the experiment with SF-268 CNS, 1.7 µM. Further, the TGI was 3.12 µM in the experiment on MDA-MB-231 breast; 3.32 µM in the experiment on IGROV1 ovarian; 2.4 µM in the experiment on CCRF-CEM leukemia; 3.02 µM in the experiment on OVCAR-4 ovarian; 3.5 µM in the experiment on HT29 colon; 3.45 µM in the experiment on MDA-MB-435. For the same compound, the TGI stood at 4.77 µM in the experiment with SNB-19 CNS, 3.19 µM with OVCAR-3 ovarian, 2.55 µM with HCT-116 colon and 3.52 µM in the experiment with SF-268 CNS.

For the compound `O=C(NNc1nc(Cl)nc(N2CCN(C(c3ccccc3)c3ccccc3)CC2)n1)c1ccccc1`, the GI50 in the experiment with MDA-MB-231 breast was 1.96 µM; in the experiment on IGROV1 ovarian, 1.66 µM; in the experiment with CCRF-CEM leukemia it was 1.28 µM; with OVCAR-4 ovarian it was 1.68 µM; in the experiment on HT29 colon, 1.92 µM; in the experiment on MDA-MB-435 it was 1.75 µM. Besides, the GI50 is 1.76 µM in the experiment with SNB-19 CNS, 1.65 µM with OVCAR-3 ovarian, 1.62 µM in the experiment on HCT-116 colon and 1.73 µM in the experiment with SF-268 CNS. Also, the TGI in the experiment on MDA-MB-231 breast came out at 3.77 µM; in the experiment with IGROV1 ovarian it was 3.06 µM; in the experiment on CCRF-CEM leukemia it was 4.53 µM; in the experiment on OVCAR-4 ovarian, 3.14 µM; in the experiment with HT29 colon, 4.07 µM; with MDA-MB-435, 3.21 µM. For the same compound, the TGI in the experiment on SNB-19 CNS was 3.33 µM; in the experiment on OVCAR-3 ovarian it was 3.13 µM; in the experiment with HCT-116 colon, 3.06 µM; in the experiment with SF-268 CNS, 3.33 µM.

With `COc1ccc(C(=O)/C(Br)=C/C(=O)O)cc1`, the GI50 is 53.7 µM in the experiment on MDA-MB-231 breast; 121 µM and 144 µM in the experiment with IGROV1 ovarian; 3.22 µM and 9.43 µM in the experiment with CCRF-CEM leukemia; 59.4 µM with HT29 colon; 8.18 µM with MDA-MB-435; 56.3 µM with SNB-19 CNS. Also, the GI50 in the experiment on OVCAR-3 ovarian is 35.6 µM and 22.7 µM; with HCT-116 colon, 25.9 µM and 25.4 µM; in the experiment with SF-268 CNS, 27.3 µM. The TGI with MDA-MB-231 breast is 84 µM and 115 µM; in the experiment on IGROV1 ovarian, 321 µM and 461 µM; in the experiment on CCRF-CEM leukemia, 61 µM and 81.7 µM; in the experiment on OVCAR-4 ovarian it was 125 µM and 120 µM; in the experiment on HT29 colon it was 658 µM and 491 µM; in the experiment on MDA-MB-435, 111 µM and 33.5 µM. Further, the TGI was 188 µM and 375 µM in the experiment with SNB-19 CNS; 133 µM and 116 µM in the experiment on OVCAR-3 ovarian; 81.3 µM and 65.8 µM with HCT-116 colon; 202 µM and 225 µM with SF-268 CNS.

These data come from PubChem BioAssay (NCI).
